Where two headings read alike, the source gives them in different places.
Tests used:
Assay type in all cases: cell-based, human
HCT-116 cells = assay: Inhibition test for sphere-forming ability of cancer cells (Test Example 1), HCT-116; conditions: for IC50: read-out: IC50 (μmol/L) HCT-116 (Sphere IC50 value); for inhibitory effect on the sphere-forming ability of cancer cells: Test Example 1, summary in words, cell line not given (HCT-116, HT-29, FaDu tested)
Text: (§1) The reliable methods established for measuring the self-renewal ability of cells which is one of the CSC's properties include a method for measuring the sphere-forming ability of cancer cells in non-adherent condition in the absence of serum (Cancer Res 65, 5506-5511 (2005)). Human colorectal cancer-derived HCT-116 cells, human colon-adenocarcinoma-derived HT-29 cells, and human pharyngeal cancer-derived FaDu cells were available from American Type Culture Collection (ATCC). HCT-116 cells and HT-29 cells were cultured at 37° C. under 5% CO2 using the McCoy's 5a medium containing 10% fetal bovine serum (FBS) and 1% penicillin/streptomycin, and FaDu cells were cultured at 37° C. under 5% CO2 using the MEM medium containing 10% FBS, 1% non-essential amino acid, 1% sodium pyruvate, and 1% penicillin/streptomycin. HCT-116 cells, HT-29 cells, and FaDu cells were seeded in a 384 Well Black Clear Bottom Ultra-Low Attachment Microplate (Corning Cat. No. 3827) in an amount of 350-800 cells/well using the DMEM/F12 medium containing 2% B27 supplement (GIBCO), 20 ng/mL epidermal growth factor (EGF) (peprotech), 10 ng/mL basic fibroblast growth factor (bFGF) (peprotech), 5 μg/mL insulin (Sigma), and 1% penicillin/streptomycin. Each test compound was added into each well to adjust the final concentration of DMSO to 0.1%, and the cells were cultured for 4 days. The number of viable cells in each well was then measured with CellTiter-Glo® Luminescent Cell Viability Assay (Promega) to calculate the concentration of each test compound for 50% inhibition of cell proliferation (Sphere IC50 value; μmol/L).
(§2) The experiment of Test Example 1 was performed for each compound of each Example. The concentration of each test compound for 50% inhibition of cell proliferation (Sphere IC50 value; μmol/L) is shown in the following Table.

HT-29 cells = assay: Inhibition test for sphere-forming ability of cancer cells (Test Example 1), HT-29; conditions: for IC50: read-out: IC50 (μmol/L) HT-29 (Sphere IC50 value); for (100%-inhibition rate of cell proliferation) at 1 μmol/L, HT-29: value with %
Text: as §1, §2

FaDu cells = assay: Inhibition test for sphere-forming ability of cancer cells (Test Example 1), FaDu; conditions: for IC50: read-out: IC50 (μmol/L) FaDu (Sphere IC50 value); for (100%-inhibition rate of cell proliferation) at 1 μmol/L, FaDu: value with %
Text: as §1, §2

[1] = Homo sapiens, HCT-116 cells, concentration for 50% inhibition of cell proliferation
[2] = Homo sapiens, concentration for 50% inhibition of cell proliferation
[3] = HCT-116 cells, 1 μmol/L, value with %
[4] = HCT-116 cells, concentration for 50% inhibition of cell proliferation
[5] = concentration for 50% inhibition of cell proliferation
[6] = Homo sapiens, read-out: (100%-inhibition rate of cell proliferation) at 1 μmol/L, 1 μmol/L, value with %

SMILES	IC50 (HCT-116 cells; [1]) [µmol/L]	IC50 (HT-29 cells; [2]) [µmol/L]	IC50 (FaDu cells; [2]) [µmol/L]	IC50 (HCT-116 cells; [4]) [µmol/L]	IC50 (HT-29 cells; [5]) [µmol/L]	IC50 (FaDu cells; [5]) [µmol/L]	further results
CC(=O)Nc1ccc(/C=C/C(=O)Nc2cn(Cc3cccc(Cl)c3)cn2)cn1 [Example 20, (E)-3-(6-Acetylaminopyridin-3-yl)-N-(1-(3-chlorobenzyl)-1H-imidazol-4-yl)acrylamide]	0.45	0.01	0.06	–	–	–	–
O=C(/C=C/c1cccnc1)Nc1cn(Cc2cccc(C(F)(F)F)c2)cn1 [Example 103]	0.87	0.6	0.6	–	–	–	–
COc1ccc(/C=C/C(=O)Nc2cn(Cc3cccc(Cl)c3)cn2)cc1OCC(N)=O [Example 30]	> 10	> 10	0.71	–	–	–	–
COc1ccc(C(=O)Nc2cn(Cc3cccc(Oc4ccccc4)c3)cn2)cc1OC [Example 297]	–	–	–	–	–	–	(100%-inhibition rate of cell proliferation) at 1 μmol/L, HCT-116 (HCT-116 cells; [3]): 56.6%; (100%-inhibition rate of cell proliferation) at 1 μmol/L, HT-29 (HT-29 cells): 33.7%; (100%-inhibition rate of cell proliferation) at 1 μmol/L, FaDu (FaDu cells): 31.4%
CC(C)Oc1ccc(C(=O)Nc2cn(Cc3cccc(Cl)c3)cn2)cn1 [Example 207]	–	–	–	0.83	0.67	0.89	–
COCCCOc1ccc(C(=O)Nc2cn(Cc3cccc(Cl)c3)cn2)cn1 [Example 204]	–	–	–	4.56	0.72	0.86	–
CCOc1ccc(/C=C/C(=O)Nc2cn(Cc3cccc(OC(F)(F)F)c3)cn2)cn1 [Example 112]	> 10	0.04	0.07	–	–	–	inhibitory effect on the sphere-forming ability of cancer cells (HCT-116 cells): particularly potent inhibitory effect
O=C(/C=C/c1cnc2ccccc2c1)Nc1cn(Cc2cccc(Cl)c2)cn1 [Example 92]	–	–	–	1.61	0.62	0.74	–
CCCCNC(=O)c1ccc(/C=C/C(=O)Nc2cn(Cc3cccc(Cl)c3)cn2)cn1 [Example 27]	> 10	3.38	5.84	–	–	–	–
O=C(/C=C/c1ccc(O)c(F)c1)Nc1cn(Cc2cccc(Cl)c2)cn1 [Example 81]	–	–	–	3.82	6.12	0.76	–
O=C(/C=C/c1ccc(C(F)(F)F)cc1)Nc1cn(Cc2cccc(Cl)c2)cn1 [Example 48, (E)-N-(1-(3-Chlorobenzyl)-1H-imidazol-4-yl)-3-(4-(trifluoromethyl)phenyl)acrylamide]	0.76	0.08	0.09	–	–	–	–
COc1ccc(C(=O)Nc2cn(Cc3cccc(C)c3)cn2)cc1OC [Example 291]	–	–	–	–	–	–	(100%-inhibition rate of cell proliferation) at 1 μmol/L, HCT-116 (HCT-116 cells; [3]): 70.8%; (100%-inhibition rate of cell proliferation) at 1 μmol/L, HT-29 (HT-29 cells): 37.1%; (100%-inhibition rate of cell proliferation) at 1 μmol/L, FaDu (FaDu cells): 37.8%
O=C(/C=C/c1ccc(-c2ccccc2)cc1)Nc1cn(Cc2cccc(Cl)c2)cn1 [Example 70]	–	–	–	8.98	0.08	0.09	–
COc1ccc(C(=O)Nc2cn(Cc3cccc(OC(F)(F)F)c3)cn2)cc1OC [Example 166]	–	–	–	–	–	–	(100%-inhibition rate of cell proliferation) at 1 μmol/L, HCT-116 (HCT-116 cells; [3]): 36.8%; (100%-inhibition rate of cell proliferation) at 1 μmol/L, HT-29 (HT-29 cells): 33.0%; (100%-inhibition rate of cell proliferation) at 1 μmol/L, FaDu (FaDu cells): 23.8%
O=C(/C=C/c1cccnc1)Nc1cn(Cc2cccc(OC(F)(F)F)c2)cn1 [Example 109]	2.65	0.75	0.67	–	–	–	–
O=C(/C=C/c1cccs1)Nc1cn(Cc2cccc(Cl)c2)cn1 [Example 94]	–	–	–	7.88	0.97	4.57	–
O=C(/C=C/c1ccc(C(=O)N2CCCC2)nc1)Nc1cn(Cc2cccc(Cl)c2)cn1 [Example 28]	7.89	0.91	0.8	–	–	–	–

SMILES	IC50 (HCT-116 cells; [1]) [µmol/L]	IC50 (HT-29 cells; [2]) [µmol/L]	IC50 (FaDu cells; [2]) [µmol/L]	IC50 (HCT-116 cells; [4]) [µmol/L]	IC50 (HT-29 cells; [5]) [µmol/L]	IC50 (FaDu cells; [5]) [µmol/L]	further results
O=C(Nc1cn(Cc2cccc(OC(F)(F)F)c2)cn1)c1ccc(OCC(F)(F)F)nc1 [Example 222]	–	–	–	> 10	4.81	9.74	–
COc1ccc(C(=O)Nc2cn(Cc3cccc(C(F)(F)F)c3)cn2)cn1 [Example 209]	–	–	–	4.24	4.95	6.45	–
CS(=O)(=O)c1ccc(/C=C/C(=O)Nc2cn(Cc3cccc(Cl)c3)cn2)cc1 [Example 13]	8.72	0.74	2.84	–	–	–	–
Cc1ccc(F)c(Cn2cnc(NC(=O)c3ccc(OCC(F)(F)F)nc3)c2)c1F [Example 223]	–	–	–	0.76	0.65	0.81	–
COc1ccc(C(=O)Nc2cn(Cc3c(F)ccc(C)c3F)cn2)cc1OC [Example 167]	–	–	–	–	–	–	(100%-inhibition rate of cell proliferation) at 1 μmol/L, HCT-116 (HCT-116 cells; [3]): 30.5%; (100%-inhibition rate of cell proliferation) at 1 μmol/L, HT-29 (HT-29 cells): 15.6%; (100%-inhibition rate of cell proliferation) at 1 μmol/L, FaDu (FaDu cells): 59.3%
CCCCOc1ccc(C(=O)Nc2cn(Cc3cccc(Cl)c3)cn2)cn1 [Example 135]	–	–	–	–	–	–	(100%-inhibition rate of cell proliferation) at 1 μmol/L, HCT-116 (HCT-116 cells; [3]): 31.8%; (100%-inhibition rate of cell proliferation) at 1 μmol/L, HT-29 (HT-29 cells): 28.0%; (100%-inhibition rate of cell proliferation) at 1 μmol/L, FaDu (FaDu cells): 25.0%
O=C(/C=C/c1ccc2[nH]ccc2c1)Nc1cn(Cc2cccc(Cl)c2)cn1 [Example 47, (E)-N-(1-(3-Chlorobenzyl)-1H-imidazol-4-yl)-3-(1H-indol-5-yl)acrylamide]	0.89	0.7	0.76	–	–	–	–
O=C(/C=C/c1ccccn1)Nc1cn(Cc2cccc(Cl)c2)cn1 [Example 98]	–	–	–	> 10	7.58	7.75	–
Cc1cccc(/C=C/C(=O)Nc2cn(Cc3c(F)ccc(C)c3F)cn2)c1 [Example 115]	0.79	0.66	0.79	–	–	–	–
O=C(/C=C/c1ccsc1)Nc1cn(Cc2cccc(Cl)c2)cn1 [Example 119]	0.67	0.16	0.56	–	–	–	–
COc1cc(/C=C/C(=O)Nc2cn(Cc3cccc(Cl)c3)cn2)cc(OC)c1 [Example 85]	–	–	–	–	–	–	IC50 (μmol/L) HCT-116 (Sphere IC50 value) (HCT-116 cells; [4]): 17.96 µmol/L; IC50 (μmol/L) HT-29 (Sphere IC50 value) (HT-29 cells; [5]): 25.90 µmol/L; IC50 (μmol/L) FaDu (Sphere IC50 value) (FaDu cells; [5]): 13.73 µmol/L
O=C(/C=C/c1cc(Cl)ccc1Cl)Nc1cn(Cc2cccc(Cl)c2)cn1 [Example 83]	–	–	–	0.8	0.6	0.91	–
COc1ccc(C(=O)Nc2cn(Cc3c(F)ccc(C)c3F)cn2)cn1 [Example 216]	–	–	–	0.08	0.07	0.09	inhibitory effect on the sphere-forming ability of cancer cells (HCT-116 cells): particularly potent inhibitory effect
O=C(Nc1cn(Cc2cccc(Cl)c2)cn1)c1cncc(Br)c1 [Example 283]	–	–	–	–	–	–	viability at 1 µM (HCT-116 cells; Homo sapiens, read-out: (100%-inhibition rate of cell proliferation) at 1 μmol/L, HCT-116 cells, 1 μmol/L, value with %): 75.6%; viability at 1 µM (HT-29 cells; [6]): 44.7%; viability at 1 µM (FaDu cells; [6]): 50%
O=C(/C=C/c1ccc(Cl)c(Cl)c1)Nc1cn(Cc2cccc(Cl)c2)cn1 [Example 59]	–	–	–	7.78	0.79	0.86	–
O=C(Nc1cn(Cc2cccc(C(F)(F)F)c2)cn1)c1ccc(F)nc1 [Example 226]	–	–	–	–	–	–	(100%-inhibition rate of cell proliferation) at 1 μmol/L, HCT-116 (HCT-116 cells; [3]): 45.7%; (100%-inhibition rate of cell proliferation) at 1 μmol/L, HT-29 (HT-29 cells): 91.7%; (100%-inhibition rate of cell proliferation) at 1 μmol/L, FaDu (FaDu cells): 87.9%
